Where two headings read alike, the source gives them in different places.
Legend:
[1] = target: T1, GST-RIPK2 fusion protein (human RIPK2, amino acids 1-310) (Homo sapiens, UniProt O43353); assay: RIPK2 binding competition assay (TR-FRET, Tracer 199 displacement); conditions: 10 nM Tracer 199, 1 nM GST-RIPK2, read-out: RIPK2 IC50
T1 construct: made in house; host or cells: baculovirus infected Sf9 cells
How it was run: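 GST-RIPK2 (human aa 1-310, Sf9-expressed; final 1 nM) with Tracer 199 (final 10 nM) and Tb-anti-GST (final 0.5 nM) in Tris pH 7.5 buffer, 45 min at 22 °C. TR-FRET 665/620 nm ratio after 337 nm excitation; normalized to no-inhibitor (0%) and no-protein (−100%), giving IC50.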

[2] = tested on: NF-κB pathway (SEAP) in THP1-Dual cells; assay: THP-1 Dual cell SEAP assay (L18-MDP stimulated); assay type: cell-based; conditions: Homo sapiens, THP1-Dual, read-out: NF-κB THP1 IC50 bin
How it was run: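 THP1-Dual cells (~25,000/well) were preincubated 30 min with serially diluted compounds, then stimulated with 10 ng/mL L18-MDP (final) for 20-24 h at 37 °C. Supernatant SEAP was read with QUANTI-Blue at OD 620-655 nm after 2 h. IC50 came from non-linear fits of % inhibition versus DMSO/L18-MDP controls after media-blank subtraction.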

[3] = target: T2, binding of His-XIAP(BIR2)-avi fusion protein to GST-RIPK2 fusion protein (RIPK2/XIAP) (Homo sapiens, UniProt O43353); assay: RIPK2-XIAP binding competition PPI assay (TR-FRET); conditions: for Emax: read-out: PPI Amax bin; for IC50: read-out: PPI IC50 bin
T2 construct: made in house; host or cells: baculovirus infected Sf9 cells
T2 sequence (O43353 1-310 limits assumed): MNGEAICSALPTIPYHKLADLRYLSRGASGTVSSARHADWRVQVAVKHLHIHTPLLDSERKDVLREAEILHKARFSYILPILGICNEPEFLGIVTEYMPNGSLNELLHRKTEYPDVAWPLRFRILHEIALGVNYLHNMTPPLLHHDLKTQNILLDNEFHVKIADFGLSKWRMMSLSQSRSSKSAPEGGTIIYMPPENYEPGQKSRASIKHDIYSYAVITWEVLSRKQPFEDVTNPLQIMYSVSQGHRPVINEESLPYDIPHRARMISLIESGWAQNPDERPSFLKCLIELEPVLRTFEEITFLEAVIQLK
How it was run: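 Compounds (in DMSO, 100-fold stock) incubated 120 min at 23 °C with 1 nM GST-RIPK2 (aa 1-310) and 25 nM His-XIAP(BIR2 aa 152-231)-avi, plus anti-His-XL665 and anti-GST-Tb, in pH 7.5 Tris buffer. Read-out: 665/520 nm emission ratio. Normalized to no-inhibitor (0%) and 50 nM GSK583 (−100%); Amax binned A–D.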

[4] = RIPK2/XIAP binding competition PPI assay, Amax
[5] = RIPK2/XIAP binding competition PPI assay

T1 sequence (O43353 1-310): as the sequence (O43353 1-310 limits assumed) above

Compound	IC50 [1] [nM]	IC50 [2] [nM]	Emax [3, 4] [%]	IC50 [3, 5] [nM]	Emax [3] [%]
C[C@@H](O)COc1cn2ncc(-c3cc(Cl)c(N)nc3F)c2cc1S(=O)(=O)C(C)(C)C [Example 254, (R)-1-((3-(6-amino-5-chloro-2-fluoropyridin-3-yl)-5-(tert-butylsulfonyl)pyrazolo [1,5-a]pyridin-6-yl)oxy)propan-2-ol]	1 to 2.5	50 to 250	> 80	1 to 2.5	–
COc1cc2ncc(-c3cnc4c(c3)NCCO4)n2cc1S(=O)(=O)C(C)(C)C [Example 82, 7-(6-(tert-butylsulfonyl)-7-methoxyimidazo[1,2-a]pyridin-3-yl)-2,3-dihydro-1H-pyrido[2,3-b][1,4]oxazine]	> 20	> 1000	< 30	> 20	–
COc1cc2ncc(-c3cc(F)c(OC)c(NS(=O)(=O)c4cn(C)nc4C)c3)n2cc1S(=O)(=O)C(C)(C)C [Example 279, N-(5-(6-(tert-butylsulfonyl)-7-methoxyimidazo[1,2-a]pyridin-3-yl)-3-fluoro-2-methoxyphenyl)-1,3-dimethyl-1H-pyrazole-4-sulfonamide]	< 1	< 50	> 80	< 1	–
COc1cc2ncc(-c3ccc4c(c3)c(C)nn4C)n2cc1S(=O)(=O)C(C)(C)C [Example 101, 5-(6-(tert-butylsulfonyl)-7-methoxyimidazo[1,2-a]pyridin-3-yl)-1,3-dimethyl-1H-indazole]	2.5 to 20	> 1000	< 30	> 20	–
Cc1c(-c2cnc3cc(OCCO)c(S(=O)(=O)C(C)(C)C)cn23)cnc(N)c1F [Example 50, 2-((3-(6-amino-5-fluoro-4-methylpyridin-3-yl)-6-(tert-butylsulfonyl)imidazo[1,2-a]pyridin-7-yl)oxy)ethan-1-ol]	> 20	> 1000	55 to 80	> 20	–
Cn1ccc(COc2cc3ncc(-c4cc(F)c(N)nc4F)n3cc2S(=O)(=O)C(C)(C)C)n1 [Example 25, 5-(6-(tert-butylsulfonyl)-7-((1-methyl-1H-pyrazol-3-yl)methoxy)imidazo[1,2-a]pyridin-3-yl)-3,6-difluoropyridin-2-amine]	2.5 to 20	250 to 1000	> 80	2.5 to 20	–
COc1cc2ncc(-c3cccc(NS(=O)(=O)C4(CO)CC4)c3)n2cc1S(=O)(=O)C(C)(C)C [Example 179, N-(3-(6-(tert-butylsulfonyl)-7-methoxyimidazo[1,2-a]pyridin-3-yl)phenyl)-1-(hydroxymethyl)cyclopropane-1-sulfonamide]	2.5 to 20	> 1000	55 to 80	2.5 to 20	–
COc1cc2ncc(-c3cc(F)c(OC)c(NC(=O)c4cnn(C)c4)c3)n2cc1S(=O)(=O)C(C)(C)C [Example 296, N-(5-(6-(tert-butylsulfonyl)-7-methoxyimidazo[1,2-a]pyridin-3-yl)-3-fluoro-2-methoxyphenyl)-1-methyl-1H-pyrazole-4-carboxamide]	> 20	> 1000	> 80	> 20	–
COc1cc2ncc(-c3cc(F)c(N)nc3F)n2cc1S(=O)(=O)N1CCNCC1 [Example 164, 3,6-difluoro-5-(7-methoxy-6-(piperazin-1-ylsulfonyl)imidazo[1,2-a]pyridin-3-yl)pyridin-2-amine]	> 20	> 1000	> 80	> 20	–
CC(C)(C)S(=O)(=O)c1cn2c(-c3cc(F)c(N)nc3F)cnc2cc1OCC(F)CO (centres unmarked) [Example 203, 3-((3-(6-amino-2,5-difluoropyridin-3-yl)-6-(tert-butylsulfonyl)imidazo [1,2-a]pyridin-7-yl)oxy)-2-fluoropropan-1-ol]	1 to 2.5	50 to 250	> 80	1 to 2.5	–
COc1cc2ncc(-c3cccc(NS(=O)(=O)C4CCOC4)c3)n2cc1S(=O)(=O)C(C)(C)C (centres unmarked) [Example 148, N-(3-(6-(tert-butylsulfonyl)-7-methoxyimidazo[1,2-a]pyridin-3-yl)phenyl)tetrahydrofuran-3-sulfonamide]	2.5 to 20	> 1000	> 80	2.5 to 20	–
COc1cc2ncc(-c3cc(F)c(OC)c(NS(=O)(=O)c4ccccc4)c3)n2cc1S(=O)(=O)C(C)(C)C [Example 281, N-(5-(6-(tert-butylsulfonyl)-7-methoxyimidazo[1,2-a]pyridin-3-yl)-3-fluoro-2-methoxyphenyl)benzenes ulfonamide]	< 1	< 50	> 80	< 1	–
COc1cc2ncc(-c3cc(F)c(N)nc3F)n2cc1S(=O)(=O)C1(C)CC1 [Example 68, 3,6-difluoro-5-(7-methoxy-6-((1-methylcyclopropyl)sulfonyl)imidazo[1,2-a]pyridin-3-yl)pyridin-2-amine]	> 20	> 1000	> 80	> 20	–
COc1cc2ncc(-c3cc(F)c(OC)c4[nH]c(C)nc34)n2cc1S(=O)(=O)C(C)(C)C [Example 118, 4-(6-(tert-butylsulfonyl)-7-methoxyimidazo[1,2-a]pyridin-3-yl)-6-fluoro-7-methoxy-2-methyl-1H-benzo[d]imidazole]	1 to 2.5	50 to 250	55 to 80	< 1	–
CC(C)(C)S(=O)(=O)c1cn2c(-c3ccc4[nH]ccc4n3)cnc2cc1OCCO [Example 278, 2-((6-(tert-butylsulfonyl)-3-(1H-pyrrolo[3,2-b]pyridin-5-yl)imidazo[1,2-a]pyridin-7-yl)oxy)ethan-1-ol]	> 20	> 1000	30 to 55	2.5 to 20	–
CCS(=O)(=O)Nc1cc(-c2cnc3cc(OC[C@@H](C)O)c(S(=O)(=O)C(C)(C)C)cn23)cc(F)c1OC [Example 252, (R)-N-(5-(6-(tert-butylsulfonyl)-7-(2-hydroxypropoxy)imidazo[1,2-a]pyridin-3-yl)-3-fluoro-2-methoxyphenyl) ethanesulfonamide]	< 1	< 50	> 80	< 1	–
COc1cc2ncc(-c3cnc4c(c3)CC(=O)N4)n2cc1S(=O)(=O)C(C)(C)C [Example 83, 5-(6-(tert-butylsulfonyl)-7-methoxyimidazo[1,2-a]pyridin-3-yl)-1,3-dihydro-2H-pyrrolo[2,3-b]pyridin-2-one]	> 20	> 1000	< 30	> 20	–
COc1cc2ncc(-c3cccc(NS(=O)(=O)C4CCN(C(=O)OC(C)(C)C)CC4)c3)n2cc1S(=O)(=O)C(C)(C)C [Example 157, tert-butyl 4-(N-(3-(6-(tert-butylsulfonyl)-7-methoxyimidazo[1,2-a]pyridin-3-yl)phenyl)sulfamoyl)piperidine-1-carboxylate]	> 20	> 1000	55 to 80	> 20	–
CC(C)(C)S(=O)(=O)c1cn2c(-c3cc(F)c(N)nc3F)cnc2cc1OCCO [Example 12, 2-((3-(6-amino-2,5-difluoropyridin-3-yl)-6-(tert-butylsulfonyl)imidazo[1,2-a]pyridin-7-yl)oxy)ethan-1-ol]	2.5 to 20	50 to 250	–	2.5 to 20	> 80
CC(C)(C)S(=O)(=O)c1cn2c(-c3ccc4ccnn4c3)cnc2cc1OCCO [Example 209, 2-((6-(tert-butylsulfonyl)-3-(pyrazolo[1,5-a]pyridin-6-yl)imidazo[1,2-a]pyridin-7-yl)oxy)ethan-1-ol]	> 20	> 1000	30 to 55	> 20	–
COc1cc2ncc(-c3cnc4cc(N)ccc4c3)n2cc1S(=O)(=O)C(C)(C)C [Example 92, 3-(6-(tert-butylsulfonyl)-7-methoxyimidazo[1,2-a]pyridin-3-yl)quinolin-7-amine]	> 20	> 1000	30 to 55	> 20	–
COc1c(F)cc(-c2cnc3cc(OC[C@@H](C)O)c(S(=O)(=O)C(C)(C)C)cn23)cc1NS(C)(=O)=O [Example 255, (R)-N-(5-(6-(tert-butylsulfonyl)-7-(2-hydroxypropoxy)imidazo [1,2-a]pyridin-3-yl)-3-fluoro-2-methoxyphenyl) methanesulfonamide]	1 to 2.5	50 to 250	55 to 80	< 1	–
COc1cc2ncc(-c3cc(F)c(OC)c4[nH]ncc34)n2cc1S(=O)(=O)C(C)(C)C [Example 120, 4-(6-(tert-butylsulfonyl)-7-methoxyimidazo[1,2-a]pyridin-3-yl)-6-fluoro-7-methoxy-1H-indazole]	2.5 to 20	> 1000	55 to 80	2.5 to 20	–
